# Reference: US20220401592A1, “LOW MOLECULAR WEIGHT AND POLYAMIDOAMINE (PAMAM) DENDRIMER BASED PSMA-SPECIFIC DUAL CONTRAST AGENTS FOR OPTICAL AND PHOTOACOUSTIC IMAGING AND THERANOSTIC AGENTS FOR TREATING PROSTATE CANCER” (priority 2021, published 2022)
# How the values were obtained:
# [1] = tested on: PSMA+ PC3 PIP and PSMA-PC3 flu xenografts; experiment: NIR optical imaging, in vivo and ex vivo, of tumor-bearing mice; parameters: species or system NOD-SCID mice; conditions: for preferential accumulation in PSMA+ PC3 PIP tumors vs PSMA-PC3 flu tumors (optical imaging): whole-body NIR imaging, 800 nm channel
# PSMA+ PC3 PIP tumors = experiment: In vivo photoacoustic imaging, PSMA+ PC3 PIP tumors; parameters: species or system NOD-SCID mice
# PSMA [2] = biological target: T1, PSMA (Homo sapiens, UniProt Q04609); experiment: In vitro binding assay of conjugates with PSMA+ PC3 PIP cells (vs PSMA- PC3 flu cells); parameters: expressed in transfected cells; host or cells: PSMA+ PC3 PIP (human prostate cancer PC3 subline); PSMA- PC3 flu as negative control; conditions: for Kd: PSMA+ PC3 PIP cells, fluorescence intensity vs concentration, read-out: Kd, dissociation constant
# Target sequence in this assay (Q04609 whole entry): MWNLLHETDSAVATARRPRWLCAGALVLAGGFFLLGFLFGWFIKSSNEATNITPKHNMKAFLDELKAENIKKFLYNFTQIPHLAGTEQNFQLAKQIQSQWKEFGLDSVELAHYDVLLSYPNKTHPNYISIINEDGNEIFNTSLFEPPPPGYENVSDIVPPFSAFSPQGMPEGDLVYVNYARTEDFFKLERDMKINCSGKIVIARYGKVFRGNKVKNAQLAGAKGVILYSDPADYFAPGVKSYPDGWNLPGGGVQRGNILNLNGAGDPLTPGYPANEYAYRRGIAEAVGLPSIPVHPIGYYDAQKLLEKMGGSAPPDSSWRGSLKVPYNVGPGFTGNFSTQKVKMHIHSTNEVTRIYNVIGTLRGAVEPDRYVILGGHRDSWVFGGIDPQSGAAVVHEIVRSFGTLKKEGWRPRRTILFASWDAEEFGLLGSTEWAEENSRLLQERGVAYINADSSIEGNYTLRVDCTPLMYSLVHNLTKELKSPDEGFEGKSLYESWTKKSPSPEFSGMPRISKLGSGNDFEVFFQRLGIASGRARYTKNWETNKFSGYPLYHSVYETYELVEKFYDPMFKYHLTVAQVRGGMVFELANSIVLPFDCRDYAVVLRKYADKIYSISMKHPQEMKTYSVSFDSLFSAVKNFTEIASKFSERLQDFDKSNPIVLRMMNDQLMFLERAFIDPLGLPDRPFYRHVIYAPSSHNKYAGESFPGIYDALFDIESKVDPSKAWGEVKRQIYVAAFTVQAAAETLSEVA
# PSMA-PC3 flu tumors = experiment: In vivo photoacoustic imaging, PSMA-PC3 flu tumors; parameters: species or system NOD-SCID mice
# Excerpt: To evaluate potential application of the conjugates in photoacoustic imaging, mice used in optical imaging (described in optical imaging section) were imaged using the Nd:YAG OPO laser and Verasonics Vantage 256 ultrasound research platform. […] Under the assumption that different tissue types yield linearly independent PA signal, the two-dimensional (axial and lateral) PA images of the exogeneous imaging agent (conjugate VI) were decomposed from the acquired three-dimensional photoacoustic volume (axial, lateral, and spectral) using non-negative least squares models. The same speed of sound was considered in the beam formation of US and PA imaging. Thus, the two imaging modalities were co-registered by nature. On top of that, image fusion of the two was achieved by using Daubechies 2 wavelet in wavelet transform.
# To record background for PA signal mice were imaged before administration of […] and 5, 24, 48, and 72 h after injection (ai). The average PA intensities within the region-of-interest (ROI) of PSMA^+ PC3 normalized with respect to the pre-administration baseline PIP were 25.1±11.0, 30.2±21.1, and 21.8±7.4 at 24, 48 and 72 h ai, respectively. The average PA image intensities within the ROI of PSMA-PC3 flu were 4.2±4.3, 5.9±2.5, 3.8±1.3 (a.u.) at the same time points. […] The normalized PA image intensities of PSMA^+ PC3 PIP tumors were 1.1±0.9, 3.8±4.1, and 1.6±1.4 (a.u.) at 24, 48 and 72 h ai, respectively, and of PSMA-PC3 flu tumors were 2.0±0.9, 3.4±2.4, and 0.9±0.7 (a.u.), respectively.
# PSMA [3] = biological target: T1, PSMA; conditions: cited from earlier work
# Target sequence in this assay (Q04609 whole entry, species assumed): as the sequence (Q04609 whole entry) above
# [4] = Spectrofluorometric test (fluorescence quenching) of conjugates; conditions: excitation 715 nm, emission 750-850 nm; samples with the same amount of Cy7.5 dye; normalized to conjugate I
# Experimental: (§1) All conjugates were formulated into 600 μL sample containing 2.88-nmol Cy7.5 dye. Then, each sample was equally split into three for spectrophotometric, spectrofluorometric, and PA tests, respectively. To obtain the excitation wavelength for fluorescence evaluation as well as estimating the shape of PA spectra, optical absorbance of all conjugates was first tested on a UIV-Vis spectrophotometer. A range from 650 nm to 950 nm (slightly wider than the tunable stable wavelength range on a Nd:YAG OPO laser, i.e., 700 nm to 900 nm) in step of 1 nm was selected. […] Due to the emission limit on the spectrofluorometer (up to 850 nm), the excitation for spectrofluorometry was set at 715 nm, and the emission was set from 750 nm to 850 nm in step of 1 nm. […] Specifically, to avoid the interference of photobleaching wavelengths from 700 nm to 900 nm in step of 10 nm were tested in PA tubing phantom experiment.
# [5] = PA tubing phantom experiment; conditions: for RPAmax, ratio of maximum PA intensity in NIR range (with respect to I at 770 nm): 700-900 nm in steps of 10 nm; for RPAmax, ratio of maximum PA intensity in NIR range (with respect to I at 770 nm) / RPA780, ratio of photoacoustic intensity at 780 nm (to conjugate I): same amount of Cy7.5 dye; for PB: abbreviation not defined in the footnote
# Experimental: as §1
# [6] = Spectrophotometric test (UV-Vis optical absorbance) of conjugates
# Experimental: as §1
Compound,preferential accumulation in PSMA+ PC3 PIP tumors vs PSMA-PC3 flu tumors (optical imaging) [1],"average PA intensity within ROI of PSMA+ PC3 PIP, normalized to pre-injection baseline (PSMA+ PC3 PIP tumors; 24 h after injection) [a.u.]","average PA intensity within ROI of PSMA+ PC3 PIP, normalized to pre-injection baseline (PSMA+ PC3 PIP tumors; 48 h after injection) [a.u.]","average PA intensity within ROI of PSMA+ PC3 PIP, normalized to pre-injection baseline (PSMA+ PC3 PIP tumors; 72 h after injection) [a.u.]",Kd (PSMA [2]) [nM],average PA image intensity within ROI of PSMA-PC3 flu (PSMA-PC3 flu tumors; 24 h after injection) [a.u.],average PA image intensity within ROI of PSMA-PC3 flu (PSMA-PC3 flu tumors; 48 h after injection) [a.u.],average PA image intensity within ROI of PSMA-PC3 flu (PSMA-PC3 flu tumors; 72 h after injection) [a.u.],affinity to PSMA (PSMA [3]),ex vivo fluorescence intensity PSMA+ PC3 PIP/PSMA-PC3 flu ratio ([1]; dissected tissues 72 h after injection of 100 μg (3.72 nmol)),QR (quenching rate) [4] [%],uptake by PSMA+ PC3 PIP cells compared to PSMA-PC3 flu cells (PSMA [2]),specific uptake by PSMA+ PC3 PIP in presence of an excess of ZJ-43 (PSMA [2]; excess of ZJ-43 (PSMA antagonist)),internalization in PSMA+ PC3 PIP cells compared to PSMA-PC3 flu cells (PSMA [2]; microscopic evaluation),"RPAmax, ratio of maximum PA intensity in NIR range (with respect to I at 770 nm) [5] [%]","RPA780, ratio of photoacoustic intensity at 780 nm (to conjugate I) [5] [%]",PB [5] [%/sec],absorbance relative to I below 750 nm [6],"ratio of PA intensity to I in 790-900 nm range ([5]; maximum ratio, at 860 nm) [%]"
CN1/C(=C/C=C2C=C(/C=C/C3=[N+](CCCCCC(=O)NCCCC[C@H](NC(=O)CCCCCCC(=O)NCCCC[C@H](NC(=O)N[C@@H](CCC(=O)O)C(=O)O)C(=O)O)C(=O)O)c4ccc5c(S(=O)(=O)O)cc(S(=O)(=O)O)cc5c4C3(C)C)CCC/2)C(C)(C)c2c1ccc1c(S(=O)(=O)[O-])cc(S(=O)(=O)O)cc21 [Conjugate I],preferential accumulation,21.6±16.8,12.7±5.2,10.0±4.8,780,1.9±1.4,19±0.9,2.0±1.1,,,,,,,,,,,
"NCCCCC(NC(=O)NC(CCC(=O)O)C(=O)O)C(=O)O (stereo not drawn) [KEU, Lys-Glu-urea]",,,,,,,,,picomolar,,,,,,,,,,
G4(Cy7.5)6(SA-KEU)9(Bdiol)53 [Conjugate IV],highly specific accumulation,25.1±11.0,30.2±21.1,21.8±7.4,410,4.2±4.3,5.9±2.5,3.8±1.3,,6.2,4.4,significantly higher uptake,inhibited,significantly higher internalization,48.1,49.0,0.037,,
G4(Cy7.5)s(SA-KEU)12(Bdiol)52 [Conjugate V],,,,,78,,,,,,1.3,,,,111.1,97.5,0.057,up to 1.8 times,≤ 1257.44
G4(NH2)13(Cy7.5)6(Bdiol)45 [Conjugate VI],did not show preferential uptake,1.1±0.9,3.8±4.1,1.6±1.4,,2.0±0.9,3.4±2.4,0.9±0.7,,,26.6,,,,44.6,45.4,,,
G4(NH2)20(Cy7.5)2(SA-KEU)10(Bdiol)32 [Conjugate II],,,,,680,,,,,,76.4,,,,30.3,30.8,0.043,,
G4(NH2)(Cy7.5)4(SA-KEU)9(Bdiol)30 [Conjugate III],,,,,270,,,,,,174.9,,,,20.6,20.9,0.049,,
